{"source": "paper PMC3855825", "about": "(Molecular and biochemical parasitology, 2012)", "key": {"PfDHOD [1]": {"tested_on": "PfDHOD", "settings": "read-out: Km for quinone, recombinant PfDHOD; cited from earlier work"}, "TgDHOD": {"molecular_target": "TgDHOD (Toxoplasma gondii, UniProt Q8MXD1)", "experiment": "Inhibition of recombinant TgDHOD-VSSM, DCIP reduction assay with QD", "settings": "for Effect on TgDHOD activity (in words): no concentration stated at the place; for Inhibition of TgDHOD (in words): inhibitor 1 mM, DCIP reduction assay with QD; for Type of inhibition of TgDHOD (best fit): QD as variable substrate, saturating dihydroorotate, SigmaPlot12 fit"}, "HsDHOD [2]": {"tested_on": "HsDHOD", "settings": "read-out: Km for QD, HsDHOD; cited from earlier work"}, "TgDHOD-VSSM": {"molecular_target": "T1, TgDHOD-VSSM (Toxoplasma gondii, UniProt Q8MXD1)", "T1 sequence (Q8MXD1 178-592)": "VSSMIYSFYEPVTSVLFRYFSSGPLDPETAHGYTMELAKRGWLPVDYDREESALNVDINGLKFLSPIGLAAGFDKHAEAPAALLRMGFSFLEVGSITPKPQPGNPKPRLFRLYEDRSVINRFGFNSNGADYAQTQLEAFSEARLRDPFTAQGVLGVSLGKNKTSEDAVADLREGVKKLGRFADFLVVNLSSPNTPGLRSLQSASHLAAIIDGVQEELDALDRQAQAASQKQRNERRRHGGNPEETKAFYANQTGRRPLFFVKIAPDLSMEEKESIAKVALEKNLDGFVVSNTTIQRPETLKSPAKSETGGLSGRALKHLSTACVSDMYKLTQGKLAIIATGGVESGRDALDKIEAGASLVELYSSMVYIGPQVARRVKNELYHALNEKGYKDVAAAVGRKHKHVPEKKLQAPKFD", "experiment": "Use of electron acceptors and substrate kinetics of TgDHOD-VSSM"}, "PfDHOD [3]": {"tested_on": "PfDHOD", "settings": "read-out: PfDHOD IC50, cited from earlier work"}, "HsDHOD [4]": {"tested_on": "HsDHOD", "settings": "read-out: HsDHOD IC50, cited from earlier work"}, "human complex III": {"tested_on": "human complex III", "settings": "read-out: IC50 for human complex III; cited from earlier work"}, "[5]": {"tested_on": "Saccharomyces cerevisiae complex III", "settings": "read-out: IC50 for Saccharomyces cerevisiae complex III; cited from earlier work"}, "[6]": {"settings": "read-out: TgDHOD activity compared to the control"}}, "note": "pIC50, pKi: −log10 of the molar value. Entries after “also recorded” stand apart in the source; their conditions may differ. Like-named read-outs stand apart in the source and are kept apart here.", "data": [{"smiles": "CC1=CC(=O)c2ccccc2C1=O", "note": "[Menadione, 2-methyl-1,4-naphthoquinone]", "values": [{"measurement": "Km", "setting": "PfDHOD [1]", "result": "55 to 115", "unit": "µM"}]}, {"smiles": "Cc1cc(-n2c(=O)[nH]c(=O)n(C)c2=O)ccc1Oc1ccc(SC(F)(F)F)cc1", "note": "[toltrazuril, 1-(3-methyl-4(4′-trifluoromethylthiophenoxy)phenyl)-3-methyl-1,3,5-triazine-2,4,6-(1H,3H,5H)-trione]", "values": [{"measurement": "Effect on TgDHOD activity (in words)", "setting": "TgDHOD", "result": "little effect"}, {"measurement": "remaining activity at 500 µM", "setting": "TgDHOD; [6]", "result": 82.9, "unit": "%"}]}, {"smiles": "CCCCCCCCCCC1=C(C)C(=O)C(OC)=C(OC)C1=O", "note": "[QD, 2,3-dimethoxy-5-methyl-6-decyl-1,4-benzoquinone]", "values": [{"measurement": "Km", "setting": "HsDHOD [2]", "result": 14, "unit": "µM"}]}, {"smiles": "O=C1C(Cl)=CC(=Nc2ccc(O)cc2)C=C1Cl", "note": "[DCIP, 2,6 dichlorophenol-indophenol]", "values": [{"measurement": "kcat, background activity in the absence of ubiquinone", "setting": "TgDHOD-VSSM; DCIP as only electron acceptor, 0.1 mM, 1 mM dihydroorotate", "result": "28.1 ± 0.7", "unit": "s⁻¹"}]}, {"smiles": "COC1=C(OC)C(=O)C(C)=CC1=O", "note": "[Q0, 2,3-dimethoxy-5-methyl-1,4-benzoquinone]", "values": [{"measurement": "Km", "setting": "PfDHOD [1]", "result": "55 to 115", "unit": "µM"}]}, {"smiles": "O=C(CC(=O)C(F)(F)F)c1cccs1", "note": "[TTFA, 4,4,4-trifluoro-1-(thienyl)-1,3-butanedione]", "values": [{"measurement": "Inhibition of TgDHOD (in words)", "setting": "TgDHOD", "result": "No significant inhibition"}, {"measurement": "Effect on TgDHOD activity (in words)", "setting": "TgDHOD", "result": "not significantly affected; also recorded: no effect"}]}, {"smiles": "CC(O)=C(C#N)C(=O)Nc1ccc(-c2cccc(Cl)c2Cl)cc1Cl", "note": "[MD249]", "values": [{"measurement": "pIC50", "setting": "PfDHOD [3]; ref 17 Davies et al., 2009", "result": 5.00}, {"measurement": "Type of inhibition of TgDHOD (best fit)", "setting": "TgDHOD", "result": "partial mixed inhibition"}, {"measurement": "pIC50", "setting": "HsDHOD [4]; ref 17 Davies et al., 2009", "result": 6.48}]}, {"smiles": "COc1ccccc1-c1ccc(NC(=O)C(C#N)=C(C)O)c(Cl)c1", "note": "[MD209, N-(3-chloro-2′-methoxybiphenyl-4-yl)-2-cyano-3-hydroxybut-2-enamide]", "values": [{"measurement": "pIC50", "setting": "PfDHOD [3]; ref 17 Davies et al., 2009", "result": 5.07}, {"measurement": "pKi", "setting": "TgDHOD", "result": 4.74}, {"measurement": "Type of inhibition of TgDHOD (best fit)", "setting": "TgDHOD", "result": "partial mixed inhibition"}, {"measurement": "pIC50", "setting": "HsDHOD [4]; ref 17 Davies et al., 2009", "result": 6.70}]}, {"smiles": "O=C1C(O)=C([C@H]2CC[C@H](c3ccc(Cl)cc3)CC2)C(=O)c2ccccc21", "note": "[atovaquone, trans-2-[4-(chlorophenyl)cyclohexyl]-3-hydroxy-1,4-naphthoquinone]", "values": [{"measurement": "pIC50", "setting": "human complex III", "result": 6.40}, {"measurement": "Effect on TgDHOD activity (in words)", "setting": "TgDHOD", "result": "not significantly affected"}, {"measurement": "Effect on TgDHOD activity (in words)", "setting": "TgDHOD; listed as Atovaquone", "result": "little effect"}, {"measurement": "remaining activity at 100 µM", "setting": "TgDHOD; [6]", "result": 80.6, "unit": "%"}, {"measurement": "pIC50", "setting": "[5]", "result": 7.40}]}, {"smiles": "Cc1cc(Nc2cc(F)c(C(F)(F)F)c(F)c2)n2ncnc2n1", "note": "[DSM190, N-(3,5-difluoro-4-(trifluoromethyl)phenyl)-5-methyl-[1,2,4]triazolo[1,5-a]pyrimidin-7-amine]", "values": [{"measurement": "pIC50", "setting": "PfDHOD [3]; ref 16 Gujjar et al., 2011", "result": 6.72}, {"measurement": "Effect on TgDHOD activity (in words)", "setting": "TgDHOD", "result": "poor inhibitor"}, {"measurement": "pIC50", "setting": "HsDHOD [4]; ref 16 Gujjar et al., 2011", "result": "< 4.52"}]}, {"smiles": "Cc1c(-c2ccc(-c3ccccc3F)cc2)nc2ccc(F)cc2c1C(=O)O", "note": "[brequinar, 6-fluoro-2-(2′-fluoro-1,1-biphenyl-4-yl)-3-methyl-4-quinoline carboxylic acid]", "values": [{"measurement": "Inhibition of TgDHOD (in words)", "setting": "TgDHOD", "result": "No significant inhibition"}, {"measurement": "Effect on TgDHOD activity (in words)", "setting": "TgDHOD", "result": "not significantly affected; also recorded: not efficient inhibitors"}]}, {"smiles": "COc1cc(-c2ccc(Nc3ccccc3C(=O)O)c(OC)c2)ccc1Nc1ccccc1C(=O)O", "note": "[redoxal, (2,2′-[3,3′-dimethoxy[1,1′-biphenyl]-4,4′-diyl]diimino)bis-benzoic acid]", "values": [{"measurement": "Effect on TgDHOD activity (in words)", "setting": "TgDHOD", "result": "not efficient inhibitors"}]}, {"smiles": "O=C(O)/C=C/C(=O)O", "note": "[Fumarate]", "values": [{"measurement": "Activity as electron acceptor for TgDHOD (in words)", "setting": "TgDHOD-VSSM", "result": "poor electron acceptor; also recorded: negligible activity"}]}]}
